Measurements from patent US9434738B2, “Macrocyclic benzofuran and azabenzofuran compounds for the treatment of hepatitis C” (BRISTOL-MYERS SQUIBB COMPANY, priority 2013, dated 2016).
Like-named read-outs stand apart in the source and are kept apart here.

Tests used:
[1] = test system: genotype 1b HCV replicon in Huh-7 cells; test: HCV replicon luciferase assay, genotype 1b; assay type: cell-based; conditions: Hepatitis C virus, 72 h, Huh-7, Renilla luciferase, 3 days
Experimental: Cell lines. The cell lines used to evaluate compounds consist of a human hepatocyte derived cell line (Huh-7) that constitutively expresses a genotype 1a or 1b HCV replicon containing a Renilla luciferase reporter gene. These cells were maintained in Dulbecco's modified Eagle medium (DMEM) containing 10% FBS, 100 U/mL penicillin/streptomycin and 1.0 mg/mL G418.
HCV Replicon Luciferase Assay.
To evaluate compound efficacy, HCV replicon cells were seeded in 96-well plates in DMEM containing 10% FBS at a cell density of 10^4/well. Following incubation at 37° C. overnight, compounds serially diluted in DMSO were added to the cell plates. Alternatively, titrated compounds were transferred to sterile 384-well tissue-culture treated plates and the plates seeded with 50 μL of cells at a density of 2.4×10^3 cells/well in DMEM containing 4% FCS (final DMSO concentration at 0.5%). After 3 days incubation at 37° C., cells were analyzed for Renilla Luciferase activity using the EnduRen substrate (Promega cat #E6485) according to the manufacturer's directions. Briefly, the EnduRen substrate was diluted in DMEM and then added to the plates to a final concentration of 7.5 μM. The plates were incubated for at least 1 h at 37° C. then read on a TopCount NXT Microplate Scintillation and Luminescence Counter (Packard) or Viewlux Imager (PerkinElmer) using a luminescence program. The 50% effective concentration (EC50) was calculated using the exponential form of the median effect equation where EC50=100−[(δFinh/δFcon)×100].

HCV RNA levels = conditions: cited from earlier work
HCV = conditions: combination therapy; cited from earlier work

CNC(=O)c1c(-c2ccc(F)cc2)oc2cc3c(cc12)-c1cc(C(=O)NC(C)(C)C)cc(c1)N(S(C)(=O)=O)CCCCN3S(C)(=O)=O [Compound 1001]
EC50 ([1]; read-out: EC50 1b (class)): 0.1 to 1 µM | EC50 ([1]; read-out: EC50 (uM) 1b): 0.171 µM

CNC(=O)c1c(-c2ccc(F)cc2)oc2cc3c(cc12)-c1cc(C(=O)NC(C)(C)C)cc(c1)N(S(C)(=O)=O)CCCCCN3S(C)(=O)=O [Compound 1002]
EC50 ([1]; read-out: EC50 1b (class)): 0.1 to 1 µM

CNC(=O)c1c(-c2ccc(F)cc2)oc2cc3c(cc12)-c1cc(C(=O)NC(C)(C)C)cc(c1)N(S(C)(=O)=O)CCCCCCN3S(C)(=O)=O [Compound 1003]
EC50 ([1]; read-out: EC50 1b (class)): 0.1 to 1 µM

CNC(=O)c1c(-c2ccc(F)cc2)oc2cc3c(cc12)-c1cc(C(=O)NC(C)(C)C)cc(c1)N(S(C)(=O)=O)CCCCCCCN3S(C)(=O)=O [Compound 1004]
EC50 ([1]; read-out: EC50 1b (class)): < 0.1 µM | EC50 ([1]; read-out: EC50 (uM) 1b): 0.0477 µM

CNC(=O)c1c(-c2ccc(F)cc2)oc2cc3c(cc12)-c1cc(C(=O)NC(C)(C)C)cc(c1)N(S(C)(=O)=O)CCCCCCCCN3S(C)(=O)=O [Compound 1005]
EC50 ([1]; read-out: EC50 1b (class)): 0.1 to 1 µM

CNC(=O)c1c(-c2ccc(F)cc2)oc2cc3c(cc12)-c1cc(C(=O)NC(C)(C)C)cc(c1)N(S(C)(=O)=O)CCc1ccc(cc1)CCN3S(C)(=O)=O [Compound 1006]
EC50 ([1]; read-out: EC50 1b (class)): > 1 µM | EC50 ([1]; read-out: EC50 (uM) 1b): 1.21 µM

CNC(=O)c1c(-c2ccc(F)cc2)oc2cc3c(cc12)-c1cc(cc(C(=O)NC(C)(C)C)c1)NC(=O)CCCCC(=O)N3 [Compound 1051]
EC50 ([1]; read-out: EC50 1b (class)): > 1 µM

CNC(=O)c1c(-c2ccc(F)cc2)oc2cc3c(cc12)-c1cc(cc(C(=O)NC(C)(C)C)c1)NC(=O)CCCCCCCCC(=O)N3 [Compound 1052]
EC50 ([1]; read-out: EC50 1b (class)): 0.1 to 1 µM | EC50 ([1]; read-out: EC50 (uM) 1b): 0.789 µM

CNC(=O)c1c(-c2ccc(F)cc2)oc2cc3c(cc12)-c1cc(cc(C(=O)NC(C)(C)C)c1)NC(=O)CCCCCCCCCCC(=O)N3 [Compound 1053]
EC50 ([1]; read-out: EC50 1b (class)): 0.1 to 1 µM

CNC(=O)c1c(-c2ccc(F)cc2)oc2cc3c(cc12)-c1cc(cc(C(=O)NC(C)(C)C)c1)NC(=O)OCCOC(=O)N3 [Compound 1054]
EC50 ([1]; read-out: EC50 1b (class)): > 1 µM

CNC(=O)c1c(-c2ccc(F)cc2)oc2cc3c(cc12)-c1cc(cc(C(=O)NC(C)(C)C)c1)NC(=O)OCCOCCOC(=O)N3 [Compound 1055]
EC50 ([1]; read-out: EC50 1b (class)): > 1 µM

CNC(=O)c1c(-c2ccc(F)cc2)oc2cc3c(cc12)-c1cc(cc(C(=O)NC(C)(C)C)c1)NC(=O)OCCOCCOCCOC(=O)N3 [Compound 1056]
EC50 ([1]; read-out: EC50 1b (class)): > 1 µM | EC50 ([1]; read-out: EC50 (uM) 1b): 8.34 µM

CNC(=O)c1c(-c2ccc(F)cc2)oc2cc3c(cc12)-c1cc(cc(C(=O)NC(C)(C)C)c1)NC(=S)NCCCCNC(=S)N3 [Compound 1057]
EC50 ([1]; read-out: EC50 1b (class)): > 1 µM

CNC(=O)c1c(-c2ccc(F)cc2)oc2cc3c(cc12)-c1cc(cc(C(=O)NC(C)(C)C)c1)NC(=S)NCCCCCCCCNC(=S)N3 [Compound 1058]
EC50 ([1]; read-out: EC50 1b (class)): > 1 µM

CNC(=O)c1c(-c2ccc(F)cc2)oc2cc(N(CCO)S(C)(=O)=O)c(C3CC3)cc12 [HCV-796]
hepatic toxicity (HCV RNA levels; extended dosing of the combination regimens): hepatic toxicity observed | HCV RNA levels in patients (HCV RNA levels; patients, single agent or combined with interferon and ribavirin): reduce HCV RNA levels

alpha-interferon and ribavirin
sustained efficacy (HCV): 40 % of patients
